Measurements taken from patent US8674063B2, “Chimerical peptidic molecules with antiviral properties against the viruses of the Flaviviridae family” (Centro de Ingenieria Genetica y Biotecnologia, priority 2006, dated 2014).

Assays:
Assay type in all cases: cell-based
[1] = Cytotoxic effect (CTE) of peptides on Vero cell monolayer; conditions: Vero cell monolayer; Vero cells; read-out: CTE: peptide concentration causing damage to 50% of the monolayer
Vero cells = test: as above; conditions: at the assayed conditions
[2] = tested on: dengue 2 virus (DV2, strain S16803); test: Plaque reduction neutralization assay (PRNT) in Vero cells, dengue 2 virus; conditions: for antiviral activity (inhibition of infection by DV2, plaque reduction), in words: Vero cells
Method: Vero cells were grown in 24-well plates to approximately 90% confluence, and washed twice with MEM medium without FCS. Peptide dilutions were added according to the particular assay and incubated typically during 1 h at 37° C. After the incubation, the virus was added at a multiplicity of infection of 0.1, followed by a subsequent incubation for 1 hour at 37 C. In certain experiments the peptides were added simultaneously with the virus (without preincubation) or the peptide preincubation time was modified. At the end of the second incubation, the unbound virus was eliminated by washing, and the cells were incubated for 5 days at 37 C in high density medium (MEM supplemented with non essential amino acids, 1% FCS, 1% carboxymethylcellulose) in order to propitiate the appearance of lytic plaques. The plaques were visualized by staining with 0.1% Naphtol Blue Black in 0.15 Mol/L sodium acetate. Two replicates were used per experimental point in each assay, and three independent determinations were performed. The inhibition percentage was calculated according to the expression: […]
In order to determine the role of the cell penetrating peptide and the ER retention signal on the antiviral activity of peptides of the present invention we tested peptides No 1, 2, 3 and 4 of table 1 for inhibition of the viral infection by VD2 in Vero cells, using the assay described in the example 2.

| Compound | CC50 [1] | antiviral activity (inhibition of infection by DV2, plaque reduction), in words [2] | also measured |
| --- | --- | --- | --- |
| CC[C@H](C)[C@H](NC(=O)[C@H](CO)NC(=O)[C@H](CC(C)C)NC(=O)[C@@H](NC(=O)[C@@H]1CCCN1C(=O)[C@H](CO)NC(=O)[C@H](CO)NC(=O)CNC(=O)CNC(=O)CNC(=O)[C@H](CCC(N)=O)NC(=O)[C@@H]1CCCN1C(=O)[C@@H]1CCCN1C(=O)[C@H](CCCNC(=N)N)NC(=O)[C@H](CCCNC(=N)N)NC(=O)[C@H](CCCNC(=N)N)NC(=O)[C@H](CCC(N)=O)NC(=O)[C@H](CCCNC(=N)N)NC(=O)[C@H](CCCNC(=N)N)NC(=O)[C@H](CCCCN)NC(=O)[C@H](CCCCN)NC(=O)[C@H](CCCNC(=N)N)NC(=O)CNC(=O)[C@@H](N)Cc1ccc(O)cc1)[C@@H](C)CC)C(=O)N[C@H](C(=O)N[C@H](C(=O)N[C@@H](CO)C(=O)N[C@@H](CCC(=O)O)C(=O)N[C@@H](CC(=O)O)C(=O)NCC(N)=O)[C@@H](C)CC)[C@@H](C)O [NS2Bden2+TAT] | 150 µM |  |  |
| CC[C@H](C)[C@H](NC(=O)[C@H](CO)NC(=O)[C@H](CC(C)C)NC(=O)[C@@H](NC(=O)[C@@H]1CCCN1C(=O)[C@H](CO)NC(=O)[C@H](CO)NC(=O)CNC(=O)CNC(=O)CNC(=O)[C@H](CCCNC(=N)N)NC(=O)[C@H](CCCNC(=N)N)NC(=O)[C@H](CCCNC(=N)N)NC(=O)[C@H](CCCNC(=N)N)NC(=O)[C@H](CCCNC(=N)N)NC(=O)[C@H](CCCNC(=N)N)NC(=O)[C@H](CCCNC(=N)N)NC(=O)[C@H](CCCNC(=N)N)NC(=O)[C@H](CCCNC(=N)N)NC(=O)[C@@H](N)CCCNC(=N)N)[C@@H](C)CC)C(=O)N[C@H](C(=O)N[C@H](C(=O)N[C@@H](CO)C(=O)N[C@@H](CCC(=O)O)C(=O)N[C@@H](CC(=O)O)C(=O)NCC(N)=O)[C@@H](C)CC)[C@@H](C)O [NS2Bden2-pRR] | > 50 µM |  |  |
| CC[C@H](C)[C@H](NC(=O)[C@H](CCCCN)NC(=O)[C@@H](NC(=O)[C@H](CCC(N)=O)NC(=O)[C@@H](N)CCCNC(=N)N)[C@@H](C)CC)C(=O)N[C@@H](Cc1c[nH]c2ccccc12)C(=O)N[C@@H](Cc1ccccc1)C(=O)N[C@@H](CCC(N)=O)C(=O)N[C@@H](CC(N)=O)C(=O)N[C@@H](CCCNC(=N)N)C(=O)N[C@@H](CCCNC(=N)N)C(=O)N[C@@H](CCSC)C(=O)N[C@@H](CCCCN)C(=O)N[C@@H](Cc1c[nH]c2ccccc12)C(=O)N[C@@H](CCCCN)C(=O)N[C@@H](CCCCN)C(=O)NCC(=O)NCC(=O)NCC(=O)N[C@@H](CO)C(=O)N[C@@H](CO)C(=O)N1CCC[C@H]1C(=O)N[C@H](C(=O)N[C@@H](CC(C)C)C(=O)N[C@@H](CO)C(=O)N[C@H](C(=O)N[C@H](C(=O)N[C@H](C(=O)N[C@@H](CO)C(=O)N[C@@H](CCC(=O)O)C(=O)N[C@@H](CC(=O)O)C(=O)NCC(N)=O)[C@@H](C)CC)[C@@H](C)O)[C@@H](C)CC)[C@@H](C)CC [NS2Bden2-pP2] | 50 µM |  | toxicity on the cells, in words (Vero cells): significant cytotoxicity |
| segment [I] of peptide NS2Bden2+TAT (SSPILSITISEDG), lacks the cell penetrating segment |  | does not inhibit | antiviral activity (inhibition of infection by DV2, plaque reduction), in words ([2]; listed as NS3pro protease activation inhibitor segment [I]): does not show antiviral activity in vitro |
| TAT peptide: YGRKKRRQRRRPPQ; SEQ ID NO 64; cell penetrating TAT peptide, negative control (Description of the Artificial Sequence chimerical peptide) [reference compound] |  | did not show antiviral activity | number of plaques in presence of peptide ([2]; DV2, Vero cells, FIG. 2B): increase in the number of plaques |
| CC[C@H](C)[C@H](NC(=O)[C@H](CO)NC(=O)[C@H](CC(C)C)NC(=O)[C@@H](NC(=O)[C@@H]1CCCN1C(=O)[C@H](CO)NC(=O)[C@H](CO)NC(=O)CNC(=O)CNC(=O)CNC(=O)[C@H](CCC(N)=O)NC(=O)[C@@H]1CCCN1C(=O)[C@@H]1CCCN1C(=O)[C@H](CCCNC(=N)N)NC(=O)[C@H](CCCNC(=N)N)NC(=O)[C@H](CCCNC(=N)N)NC(=O)[C@H](CCC(N)=O)NC(=O)[C@H](CCCNC(=N)N)NC(=O)[C@H](CCCNC(=N)N)NC(=O)[C@H](CCCCN)NC(=O)[C@H](CCCCN)NC(=O)[C@H](CCCNC(=N)N)NC(=O)CNC(=O)[C@@H](N)Cc1ccc(O)cc1)[C@@H](C)CC)C(=O)N[C@H](C(=O)N[C@H](C(=O)N[C@@H](CO)C(=O)N[C@@H](CCC(=O)O)C(=O)N[C@@H](CC(=O)O)C(=O)NCC(=O)NCC(=O)NCC(=O)N[C@@H](CCCCN)C(=O)N[C@@H](CC(=O)O)C(=O)N[C@@H](CCC(=O)O)C(=O)N[C@@H](CC(C)C)C(=O)O)[C@@H](C)CC)[C@@H](C)O [NS2Bden2 + TAT + KDEL] | > 150 µM |  |  |
